Laboratory results published in US20220195462A1, “FULLY-HUMAN POST-TRANSLATIONALLY MODIFIED ANTIBODY THERAPEUTICS” (REGENXBIO INC., priority 2019, published 2022).

Key:
[1] = system: carrageenan-induced paw edema in mice; assay: Carrageenan paw edema model in mice; format: in vivo, mouse; conditions: C57BL/6 mice, compared with vehicle control group
Source text: Inflammation models induced by carrageenan are frequently used acute inflammation models. Carrageenan (Cg) is a strong chemical agent that functions in stimulating the release of inflammatory and proinflammatory mediators, including bradykinin, histamine, tachykinins, reactive oxygen, and nitrogen species. Typical signs of inflammation include edema, hyperalgesia, and erythema, which develop immediately following the treatment of carrageenan. This example evaluated the effect of AAV-mediated gene delivery of Lanadelumab on carrageenan-induced paw edema in mice.
In total eighty young adult (8-9 weeks old) male C57BL/6 mice were used for this study. Paw edema was induced by a single subcutaneous (s.c.) injection of 30 μL of 0.7% or 1% carrageenan solution. […] Paw volume was measured using a digital Plethysmometer prior to carrageenan injection, and at 2, 4, 6, 8, 24 and 48 hours after injection. All animals were sacrificed 48 hours after carrageenan injection. Liver and paw specimens were also collected at the necropsy.

[2] = target: activated human plasma kallikrein (Enzyme Research Laboratories) (human) (UniProt P03952); assay: cell-based or functional assay

O=C(O)Cc1ccccc1Nc1c(Cl)cccc1Cl [diclofenac, Diclofenac]
paw volume after carrageenan injection ([1]; 0.7% Cg model): significant decrease on paw volume was observed only at 4 and 24 hours | paw volume after carrageenan injection ([1]; 1.0% Cg model): significantly decreased the paw volume at 2, 4, 6, 8 and 24 hours

B1: Lanadelumab (GenScript), purified IgG (antibody, V domains shown)
VH: EVQLLESGGGLVQPGGSLRLSCAASGFTFSHYIMMWVRQAPGKGLEWVSGIYSSGGITVYADSVKGRFTISRDNSKNTLYLQMNSLRAEDTAVYYCAYRRIGVPRRDEFDIWGQGTMVTVSS
VL: DIQMTQSPSTLSASVGDRVTITCRASQSISSWLAWYQQKPGKAPKLLIYKASTLESGVPSRFSGSGSGTEFTLTISSLQPDDFATYYCQQYNTYWTFGQGTKVEIKR
suppression of pKal activity (PFR-AMC fluorogenic kinetic enzymatic assay, antibody dose response) [2]: 0.1 nM

B2: vectorized lanadelumab (AAV8 ApoE.hAAT.L02-derived) in serum, or in total IgG purified from serum, of treated C57BL/6 mice (antibody, V domains shown)
VH: B1 VH
VL: B1 VL
percent reduction in pKal activity (serum diluted 1:25, day 49 post-administration vs day -7; PFR-AMC assay) [2]: 50%
